Measured values taken from the METLIN SMRT retention time set (Domingo-Almenara et al. 2019).

Assay: gradient 5% acetonitrile 3 min, to 50% in 2 min, to 85% in 15 min, held 3 min, 100 µL/min
Conditions: column: Zorbax Extend-C18 2.1 x 50 mm; eluents: water / acetonitrile, 0.1% formic acid
Method in brief: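 Pure standards were run in mixtures of ~100 molecules by HPLC coupled to a quadrupole time-of-flight mass spectrometer. The column was a Zorbax Extend-C18 (2.1 × 50 mm, 1.8 μm) at 100 μL/min, with water and acetonitrile each containing 0.1% formic acid, in positive and negative ionization mode. Dead and dwell volumes were 40 μL and 900 μL. Retention time was taken from computationally picked adduct peaks, each manually inspected, with data collected over 3 months.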
With `CCNC(=O)N1CCCC(c2cccc(C(=O)NCc3ccc(C)c(C)c3)c2)C1` (stereo not given) the RP-LC retention time was 866 s. `CC(=O)OCOC(c1ccc2ccccc2c1)P(=O)(OCOC(C)=O)OCOC(C)=O` (stereo not given) gave an RP-LC retention time of 854 s. `Cc1ccc(-c2nc3ccccn3c2Nc2ccccc2C)cc1` gave an RP-LC retention time of 731 s. `CCCS(=O)(=O)N1CC(=O)N(c2cccc(Cl)c2C)C(C)(C(=O)NC2CCCCC2)C1` (stereo not given) gave an RP-LC retention time of 1010 s. `CC(=O)Nc1cccc(N2CC(C(=O)Nc3ccc(C)cc3Br)CC2=O)c1` (stereo not given) showed an RP-LC retention time of 720 s. With `Cc1cccc(-c2noc(CN3C(=O)C(C)Oc4ccccc43)n2)c1` (stereo not given) the RP-LC retention time was 1110 s. `CCNc1nc(NCC)n2c(SCC(=O)c3cccc(Br)c3)nnc2n1` showed an RP-LC retention time of 680 s. With `COc1cccc(CNC(=O)C2(C)CCCN(S(=O)(=O)c3ccc(Cl)cc3)C2)c1` (stereo not given) the RP-LC retention time was 932 s. In the case of `O=C(Cc1csc(COc2ccccc2)n1)N1CCN(c2ccccn2)CC1`, the RP-LC retention time is reported as 617 s. For `Cc1ccc(S(=O)(=O)CC(=O)Nc2nc(-c3ccc4c(c3)OCCO4)cs2)cc1`, the RP-LC retention time was 935 s. Work on `CCCCN(C)C(=O)C1CCN(c2cncnc2N2CCOCC2)CC1` yielded an RP-LC retention time of 614 s. For `CCOC(=O)c1cnc(Nc2nc(C)c3cc(OC)ccc3n2)nc1C`, the RP-LC retention time was 681 s. `CSc1ccccc1CN1CCC(CNC(=O)Nc2c(F)cccc2F)CC1` gave an RP-LC retention time of 580 s. `Cc1ccc(C)c(Nc2c(-c3ccc(N(C)C)cc3)nc3ncccn23)c1` showed an RP-LC retention time of 996 s. In the case of `O=C(NCCC1CCN(C(=O)Nc2ccc(F)cc2)CC1)c1ccco1`, the RP-LC retention time is reported as 718 s. `COc1ccc(-c2nc(N(Cc3ccco3)C3CCCCC3)c3ccccc3n2)cc1` gave an RP-LC retention time of 1030 s. Molecule `COC(=O)c1ccccc1NC(=O)C1(c2cccs2)CCOCC1` has an RP-LC retention time of 1030 s. Molecule `CCN1CCN(C(=O)C(C)C2CCN(S(=O)(=O)c3ccc(Cl)s3)CC2)CC1` (stereo not given) has an RP-LC retention time of 666 s. `CN1C(=O)[C@H]2CN(Cc3cccc(OC(F)(F)F)c3)C[C@H]2C1=O` gave an RP-LC retention time of 682 s. Work on `CCCn1cc(S(=O)(=O)Nc2ccc(C)cc2)c2cccnc21` yielded an RP-LC retention time of 937 s. With `CCC(=O)N1CC(c2nc(-c3ccc(F)cc3)no2)C2(CCOCC2)C1` (stereo not given) the RP-LC retention time was 800 s. In the case of `CCc1nc(-c2cc(S(=O)(=O)N3CCC(C(=O)NC4CCCCCC4)CC3)c(C)s2)no1`, the RP-LC retention time is reported as 1070 s. For `COc1ccc(-c2n[nH]c3c2C(c2cccc(O)c2)NC3=O)cc1` (stereo not given), the RP-LC retention time was 654 s. Work on `N#Cc1ccc(C(=O)N2CCCC2c2nc(-c3cccc(C(F)(F)F)c3)no2)cc1` (stereo not given) yielded an RP-LC retention time of 1060 s. Molecule `CCCN1C(=O)CCc2cc(NS(=O)(=O)c3ccccc3C(F)(F)F)ccc21` has an RP-LC retention time of 860 s. Work on `CC(C)N1C(=O)c2cccnc2Sc2cc(NC(=O)c3ccc(F)cc3Cl)ccc21` yielded an RP-LC retention time of 916 s. `CC(C)Cc1ccc(S(=O)(=O)N2CCCC(CNC(=O)c3ccccc3)C2)cc1` (stereo not given) showed an RP-LC retention time of 1120 s. In the case of `O=C(COc1ccccc1F)N1CCN(Cc2csc(-c3ccccc3)n2)CC1`, the RP-LC retention time is reported as 606 s. Work on `Cc1ccc(S(=O)(=O)CC(=O)Nc2nc(-c3ccc4ccccc4c3)cs2)cc1` yielded an RP-LC retention time of 1100 s. Molecule `Cc1noc(C2(NC(=O)c3ccc[nH]c3=O)CCCCC2)n1` has an RP-LC retention time of 621 s. In the case of `CC(=O)N1CC[C@]2(CO)CN(C(=O)c3ccsc3)C[C@@H]2C1`, the RP-LC retention time is reported as 565 s. `CCOc1ccc(NC(=O)Nc2nccn(-c3ccc(Br)cc3)c2=O)cc1` gave an RP-LC retention time of 1040 s. `CN(C)C(=O)C1CCc2sc(C(=O)N3CCOCC3)cc2C1` (stereo not given) gave an RP-LC retention time of 614 s. Molecule `Cc1cc(C(=O)NC2CCCC2)nc2cc(-c3cccs3)nn12` has an RP-LC retention time of 655 s. With `CCn1cc(-c2nc(CC(=O)NCc3ccco3)cs2)c2cccnc21` the RP-LC retention time was 793 s. Molecule `Cc1noc(-c2cc(=O)n(CC(=O)Nc3cc(F)cc(F)c3)c3ccccc23)n1` has an RP-LC retention time of 904 s. Work on `CCOc1ccccc1NC(=O)C1CCCN(S(=O)(=O)c2ccc(OC)c(C)c2)C1` (stereo not given) yielded an RP-LC retention time of 1080 s. For `CCOc1nc2ccccc2nc1N1CCCC(C(=O)NC2CCCCC2)C1` (stereo not given), the RP-LC retention time was 1170 s. In the case of `O=C(NCCc1cccs1)c1cc2n(n1)CCCN(Cc1cccc(F)c1)C2=O`, the RP-LC retention time is reported as 843 s. In the case of `CCc1cnc2c(c1SCC(=O)N(C)c1ccccc1)c(=O)n(C)c(=O)n2C`, the RP-LC retention time is reported as 800 s. For `Cc1nc(C)c(C(=O)N2CCC(CC(=O)N3CCOCC3)C2)s1` (stereo not given), the RP-LC retention time was 684 s. Work on `COc1cc(-c2nnc(SCc3c(F)cccc3Cl)o2)cc(OC)c1OC` yielded an RP-LC retention time of 1070 s. In the case of `CSc1cccc(NC(=O)C2CCCN(C(=O)c3cc(-c4ccncc4)n[nH]3)C2)c1` (stereo not given), the RP-LC retention time is reported as 645 s. Molecule `O=C(Nc1cccc(-c2noc(C3CC3)n2)c1)c1n[nH]c2c1CCCC2` has an RP-LC retention time of 941 s. For `Cc1cc2[nH]c(C(=O)NCc3ccc(N4CCOCC4)cc3)c(CN3CCCC3)c2s1`, the RP-LC retention time was 660 s. Molecule `CN(Cc1ccccc1)C(=O)c1ccc(CN2CCN(C3CCCC3)C(=O)C2=O)cc1` has an RP-LC retention time of 763 s. `CN(CC1CCOCC1)C(=O)Nc1cccc(F)c1` showed an RP-LC retention time of 720 s. For `O=C(O)Cc1sc(Nc2ccc(Br)cc2)nc1-c1ccccc1`, the RP-LC retention time was 1020 s. For `CS(=O)(=O)N1CCN(Cc2nnnn2-c2ccc(Cl)cc2)CC1`, the RP-LC retention time was 719 s. `Cc1cc2c(c(=O)n(-c3ccccc3)c(=O)n2CC(=O)Nc2cccc(C(C)C)c2)n1C` gave an RP-LC retention time of 975 s. For `CC1CCN(CCNS(=O)(=O)c2ccccc2-c2nc(-c3ccccc3)no2)CC1`, the RP-LC retention time was 735 s. In the case of `O=C(c1csc(-c2ccc(N3CCCC3)nc2)n1)N1CCN(c2ccccn2)CC1`, the RP-LC retention time is reported as 566 s. `Cc1nnc(C2CCCN(C(=O)Cn3c(=O)oc4ccccc43)C2)s1` (stereo not given) showed an RP-LC retention time of 633 s. For `O=C(CN1C(=O)C2CCCCN2c2ccc(S(=O)(=O)N3CCCC3)cc21)NCc1cccnc1` (stereo not given), the RP-LC retention time was 646 s. `O=C(COc1ccccc1)N1CCCC(COc2ccc(C(=O)N3CCCC3)cc2)C1` (stereo not given) gave an RP-LC retention time of 808 s. Molecule `CCn1nccc1C(=O)Nc1ccc(-n2cnnn2)cc1` has an RP-LC retention time of 652 s. In the case of `CCc1ccccc1NC(=O)Cn1c(N)nc(C)cc1=O`, the RP-LC retention time is reported as 584 s. In the case of `CN(Cc1cccnc1Oc1ccccc1)C(=O)c1cccn1C`, the RP-LC retention time is reported as 781 s. `Cc1cccc(Cn2c(=O)n(CCNC(=O)c3cnccn3)c3ncccc32)c1` showed an RP-LC retention time of 722 s. For `COc1ccc(Nc2c(-c3ccc(C(=O)O)cc3)nc3cnccn23)cc1OC`, the RP-LC retention time was 663 s. For `O[Si](CCCN1CCCCC1)(c1ccc(F)cc1)C1CCCCC1` (stereo not given), the RP-LC retention time was 865 s. For `COCCN1C(=O)c2cccn2CC1CNC(=O)c1ccc(Cc2c(C)n[nH]c2C)o1` (stereo not given), the RP-LC retention time was 594 s. With `O=C(NCc1n[nH]c(=O)c2ccccc12)c1ccc([N+](=O)[O-])o1` the RP-LC retention time was 606 s. With `O=C(NCC1CCCO1)c1cn(-c2ccc(S(=O)(=O)N3CCCC3)cn2)cn1` (stereo not given) the RP-LC retention time was 705 s. In the case of `O=S(=O)(c1ccc(Cl)cc1)N1CCN(c2cnn3c(C4CC4)nnc3c2)CC1`, the RP-LC retention time is reported as 749 s. `COc1ccc(OC)c(CNC(=O)c2ccc3c(c2)N(C)C(=O)c2ccccc2O3)c1` gave an RP-LC retention time of 852 s. `COc1ccc(NS(=O)(=O)c2cc(-c3cc(C(F)(F)F)on3)sc2C)cc1` showed an RP-LC retention time of 1120 s. Molecule `COc1cccc(NC(=O)Cn2nc3c(N(C)C4CCCCC4)nccn3c2=O)c1` has an RP-LC retention time of 745 s. With `Cc1cnn(Cc2nc(-c3ccc(NC(=O)c4cc(C)on4)cc3)oc2C)c1` the RP-LC retention time was 876 s. For `Cc1cc(N2CCN(C(=O)c3c(F)cccc3F)CC2)nc(N2CCOCC2)n1`, the RP-LC retention time was 613 s. Work on `O=C(Cn1c(=O)nc(N2CCCCC2)c2ccccc21)Nc1ccc2c(c1)OCCO2` yielded an RP-LC retention time of 728 s. `O=C(Cn1cccc(-c2nc(-c3ccc(F)cc3)no2)c1=O)N1CCCC1` showed an RP-LC retention time of 727 s. Work on `Cc1cc(C)n(CC(C)C(=O)Nc2ccc(Br)cc2)n1` (stereo not given) yielded an RP-LC retention time of 800 s. `Cc1cccc(-c2ncccc2CNS(=O)(=O)c2cc(F)ccc2C)c1` showed an RP-LC retention time of 774 s. Molecule `CC(C)CN1C(=O)c2cccn2CC1CNC(=O)c1cccs1` (stereo not given) has an RP-LC retention time of 715 s. `O=C(NCC1(c2ccccc2)CCOCC1)c1c(F)cccc1Cl` showed an RP-LC retention time of 769 s. With `COc1ccc(NC(=O)C2CCN(S(=O)(=O)c3ccc4c(c3)NC(=O)CO4)CC2)cc1OC` the RP-LC retention time was 715 s. Molecule `COc1ccc(Cl)cc1NC(=O)Nc1ccc2c(c1)CN(C(=O)C1CC1)CC2` has an RP-LC retention time of 871 s. Work on `Cc1nnc(NC(=O)c2csc(Nc3ccc(OC(F)F)cc3)n2)s1` yielded an RP-LC retention time of 781 s. `CCCNC(=O)CN1c2ccc(F)cc2-c2ccccc2S1(=O)=O` gave an RP-LC retention time of 824 s. `CO[C@H]1C(=O)N(C2CCN(S(=O)(=O)Cc3ccccc3)CC2)[C@H]1c1ccncc1` gave an RP-LC retention time of 632 s. `Cc1ccc(-n2nnnc2CNC(=O)COc2ccc(Cl)cc2Cl)cc1C` showed an RP-LC retention time of 931 s. `Cc1nn(-c2ccccc2)c(C)c1S(=O)(=O)N1CCC(C(=O)Nc2ccc3c(c2)OCCO3)CC1` showed an RP-LC retention time of 914 s. For `Cc1noc(CNC(=O)CSCc2ccccc2)n1`, the RP-LC retention time was 684 s. `COc1ccc(N2CCN(C(=O)c3cn4nc(OC)ccc4n3)CC2)cc1` showed an RP-LC retention time of 683 s. Molecule `CCCN(CC1CCOC1)C(=O)Nc1c(C)cccc1C` (stereo not given) has an RP-LC retention time of 791 s. `CCCc1noc(-c2ccc3nnc(CC(=O)NC4CCCCC4)n3c2)n1` showed an RP-LC retention time of 826 s. With `COc1c(C(=O)NC2CC2)sc2cc(Cl)ccc12` the RP-LC retention time was 965 s. `Cc1cccc(CN2CCCn3nc(C(=O)NCc4ccc5c(c4)OCO5)cc3C2=O)c1` gave an RP-LC retention time of 861 s. For `CCn1ccc(C(=O)N2CCC(Cc3nc4cccnc4n3CC(C)C)C2)n1` (stereo not given), the RP-LC retention time was 619 s.
